SMILES strings stand for the structures. Some results are limits rather than exact numbers.

Common to all, as to assay: biochemical
Test [1] addresses DRB1*1201 (Homo sapiens, UniProt P01903+P01911, A100R/A169T/D57E/D86V/F55L/H45Y/K41T/L162R/M171V/P40S/Q125H/Q178H/Q39Y/Q99D/R42G/S66L/T262R/V114A/V67L/W38E/Y59H/Y61H/Y89S). In kind it is binding.
Test [2] has as its target DRB1*0301 (Homo sapiens, UniProt P01903+P01911, A100K/A102G/A103R/A169T/F55Y/I96L/K41T/L162R/M171V/P40S/Q125H/Q178H/Q39Y/R42S/S66N/T106N/T262R/W38E/Y61H). In kind it is binding.
Test [3] addresses DRB1*0405 (Homo sapiens, UniProt P01903+P01911, A100R/A169T/D86S/F76Y/I96L/K127E/L162R/M171V/N62H/P40V/Q125Y/R42H/S133A/S149N/S66Y/V115G/V209L/W38E). In kind it is binding.
The target of test [4] is DRB1*1101 (Homo sapiens, UniProt P01903+P01911, A100R/A169T/A87E/I96F/K41T/L162R/M171V/P40S/Q125H/Q178H/Q39Y/Q99D/R42S/S66Y/T262R/V115G/W38E). The settings on record: Binding affinity DRB1 *1101.
Chain of DRB1*1101 (P01903 26-254 limits assumed, other chains not shown): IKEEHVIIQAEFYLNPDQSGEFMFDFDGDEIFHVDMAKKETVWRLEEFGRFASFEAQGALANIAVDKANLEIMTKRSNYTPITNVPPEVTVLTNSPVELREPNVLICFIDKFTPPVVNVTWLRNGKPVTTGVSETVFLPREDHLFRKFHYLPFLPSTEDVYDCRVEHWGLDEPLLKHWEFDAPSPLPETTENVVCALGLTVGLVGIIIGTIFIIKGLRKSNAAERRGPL
In test [5] the target is DRB1*0802 (Homo sapiens, UniProt P01903+P01911, A100R/A103L/A169T/F76Y/H45Y/I96F/K41T/L162R/M171V/P40S/Q125H/Q178H/Q39Y/Q99D/R218S/R42G/S66Y/V115G/W38E). The format is binding.
The target in test [6] is DRB5*0101 (Homo sapiens, UniProt P01903+Q30154). The following applies: Binding affinity DRB5 *0101.
In test [7] the target is DRB1*1302 (Homo sapiens, UniProt P01903+P01911, A100E/A169T/K41T/L162R/M171V/P40S/Q125H/Q178H/Q39Y/Q99D/R42S/S66N/T262R/V115G/W38E/Y61H). In kind it is binding.
Chain of DRB1*1302 (P01903 26-254 limits assumed, other chains not shown): as above
In test [8] the target is DRB1*1501 (Homo sapiens, UniProt P01903+P01911). In kind it is binding.
The target in test [9] is DR7 (DRB1*0701) (Homo sapiens, UniProt P01903+P01911, A100R/A102G/A103Q/D57E/D86V/E43K/F76Y/K127E/L162R/M171V/P40G/Q125H/Q99D/R33Q/R42Y/R54Q/S133A/S66F/T210M/V115G/Y107V/Y59L/Y89S). The format is binding.
In test [10] the target is DR1 (DRB1*0101) (Homo sapiens, UniProt P01903+P01911, A100R/D57E/F55L/F60I/F76Y/I96L/L162R/M171V/P40L/Q125E/R42F/V115G/Y59C). The format is binding.
Test [11] has as its target DRB1*0901 (Homo sapiens, UniProt P01903+P01911, A100R/A103E/D57H/D86V/F55Y/F60I/F76Y/I96F/K127E/L162R/M171V/P40D/Q125H/Q99R/R33Q/R42F/S133A/S66N/T210M/V115G/W38K/Y107V/Y59G/Y89S). The format is binding.
Test [12] deals with DRB4*0101 (Homo sapiens, UniProt P01903+P13762, G164S). In kind it is binding.
Test [13] concerns the target DR4w4 (DRB1*0401) (Homo sapiens, UniProt P01903+P01911, A100K/A169T/F76Y/I96L/K127E/L162R/M171V/N62H/P40V/Q125Y/R42H/S133A/S149N/S66Y/V115G/V209L/W38E). The format is binding.

Chain of DRB1*0301 (P01903 26-254 limits assumed, other chains not shown): as above

A word on the IC50: it is the concentration needed to halve the response being measured. Low values mean higher potency, high ones lower potency. With `CC[C@H](C)[C@H](NC(=O)[C@@H](N)CCC(N)=O)C(=O)N[C@@H](Cc1ccc(O)cc1)C(=O)N[C@H](C(=O)N[C@@H](C)C(=O)N[C@@H](C)C(=O)N[C@@H](Cc1ccccc1)C(=O)N[C@H](C(=O)N[C@H](C(=O)N[C@@H](CCC(N)=O)C(=O)N[C@@H](C)C(=O)N[C@@H](C)C(=O)N[C@@H](C)C(=O)N[C@@H](CCC(=O)O)C(=O)N[C@H](C(=O)O)[C@@H](C)O)C(C)C)[C@@H](C)O)C(C)C` [Peptide 68.0135], the IC50 in test [1] was 934 nM; in [2], more than 20000 nM.

For the compound `CC[C@H](C)[C@H](NC(=O)[C@H](CCCNC(=N)N)NC(=O)[C@@H](N)[C@@H](C)O)C(=O)N[C@@H](Cc1ccc(O)cc1)C(=O)N[C@@H](CC(N)=O)C(=O)N[C@H](C(=O)N[C@H](C(=O)NCC(=O)N[C@H](C(=O)N[C@@H](CC(C)C)C(=O)N[C@@H](CCCNC(=N)N)C(=O)NCC(=O)N[C@@H](C)C(=O)N[C@H](C(=O)N[C@@H](CCC(=O)O)C(=O)O)C(C)C)[C@@H](C)O)[C@@H](C)CC)C(C)C` [Peptide 68.0107], the IC50 in test [1] was 502 nM; in [2], more than 20000 nM.

`CC(C)C[C@H](NC(=O)[C@H](CO)NC(=O)[C@H](CC(C)C)NC(=O)[C@H](CO)NC(=O)[C@H](C)NC(=O)[C@H](C)NC(=O)[C@H](CCCNC(=N)N)NC(=O)[C@H](C)NC(=O)[C@H](CC(C)C)NC(=O)[C@H](CC(C)C)NC(=O)[C@H](CC(C)C)NC(=O)[C@@H]1CCCN1C(=O)[C@H](C)NC(=O)[C@H](C)N)C(=O)NCC(=O)O` [Peptide 68.0019]: the IC50 in [1] was 564 nM; in [2] it was more than 20000 nM.

On to `CC[C@H](C)[C@H](NC(=O)[C@H](Cc1c[nH]c2ccccc12)NC(=O)[C@H](CCCCN)NC(=O)[C@H](CCCNC(=N)N)NC(=O)[C@H](Cc1ccc(O)cc1)NC(=O)[C@H](Cc1c[nH]cn1)NC(=O)[C@@H](NC(=O)[C@@H](NC(=O)[C@H](CCCCN)NC(=O)[C@@H](NC(=O)[C@H](Cc1ccc(O)cc1)NC(=O)[C@H](CC(C)C)NC(=O)[C@H](CO)NC(=O)[C@@H]1CCCN1C(=O)[C@@H](N)CCCNC(=N)N)[C@@H](C)O)C(C)C)C(C)C)C(=O)O` [Peptide 68.0082], for which the results for the IC50 in [1] and in test [2] were 4160 nM and more than 20000 nM, respectively.

As for `CC[C@H](C)[C@H](NC(=O)[C@H](Cc1ccccc1)NC(=O)[C@H](Cc1c[nH]c2ccccc12)NC(=O)CNC(=O)[C@H](Cc1ccccc1)NC(=O)[C@H](CC(C)C)NC(=O)[C@H](Cc1ccccc1)NC(=O)CNC(=O)[C@@H](N)CC(C)C)C(=O)N[C@@H](CCCCN)C(=O)N[C@@H](CO)C(=O)N[C@@H](CO)C(=O)N[C@@H](CC(N)=O)C(=O)N[C@@H](CCC(=O)O)C(=O)N[C@@H](C)C(=O)O` [Peptide 68.0084], the IC50 in test [1] was 475 nM; in [2], more than 20000 nM.

For `CC[C@H](C)[C@H](NC(=O)CNC(=O)[C@H](CCC(=O)O)NC(=O)[C@H](Cc1c[nH]cn1)NC(=O)[C@@H](NC(=O)[C@H](Cc1ccc(O)cc1)NC(=O)[C@H](Cc1ccc(O)cc1)NC(=O)[C@H](CC(C)C)NC(=O)CN)C(C)C)C(=O)N[C@@H](CCCNC(=N)N)C(=O)N[C@H](C(=O)N[C@@H](Cc1ccc(O)cc1)C(=O)N[C@@H](Cc1ccccc1)C(=O)N[C@H](C(=O)N[C@@H](CCC(N)=O)C(=O)O)C(C)C)[C@@H](C)O` [Peptide 90.0171], the IC50 in test [3] was 4660 nM; in [4], 5360 nM; in test [5], 7380 nM; in [6], more than 20000 nM; in [7], 532 nM; in test [8] it was 1620 nM. The IC50 amounted to 5580 nM in test [9]; 26 nM in test [10]; 1000 nM in test [11]; 1.9 nM in test [12]; 668 nM in test [13]; 689 nM in test [2].

The record behind these values is US9340577B2, “HLA binding motifs and peptides and their uses” (priority 1992, dated 2016).
